As a reminder, the IC50 is the concentration at which inhibition is half-maximal.

The target of one assay is T1, TBK1 (Homo sapiens, UniProt Q9UHD2).
T1 construct: purchased Promega V3991
T1 sequence (Q9UHD2 1-729): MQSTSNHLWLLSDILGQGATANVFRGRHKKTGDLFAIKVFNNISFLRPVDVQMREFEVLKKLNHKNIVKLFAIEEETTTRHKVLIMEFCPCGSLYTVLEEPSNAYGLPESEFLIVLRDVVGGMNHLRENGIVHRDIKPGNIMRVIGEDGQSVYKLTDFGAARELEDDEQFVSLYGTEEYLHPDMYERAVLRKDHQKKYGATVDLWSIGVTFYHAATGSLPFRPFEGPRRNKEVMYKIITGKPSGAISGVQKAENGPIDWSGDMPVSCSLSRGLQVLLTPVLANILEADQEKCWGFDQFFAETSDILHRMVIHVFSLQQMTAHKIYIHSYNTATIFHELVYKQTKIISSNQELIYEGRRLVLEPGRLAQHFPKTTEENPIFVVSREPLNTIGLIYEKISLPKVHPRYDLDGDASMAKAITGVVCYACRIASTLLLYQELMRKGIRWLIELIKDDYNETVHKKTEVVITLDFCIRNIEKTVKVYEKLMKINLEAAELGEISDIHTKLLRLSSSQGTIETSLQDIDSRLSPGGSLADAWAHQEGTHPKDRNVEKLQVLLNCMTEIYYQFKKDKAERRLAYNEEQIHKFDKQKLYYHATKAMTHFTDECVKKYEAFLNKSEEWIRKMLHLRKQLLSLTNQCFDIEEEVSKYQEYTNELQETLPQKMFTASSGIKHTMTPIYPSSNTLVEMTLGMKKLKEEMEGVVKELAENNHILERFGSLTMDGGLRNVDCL
As to the kind of experiment: TBK1 inhibition, ADP-Glo Kinase Assay. Format: biochemical. The conditions noted are these: luminometer. In outline:
(§1)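 ADP-Glo luminescence reported ADP produced by each kinase, following the kit protocol. Reactions used commercial kinase enzyme systems in buffer of 40 mM Tris (pH 7.5), 20 mM MgCl2 and 0.1 mg/mL BSA.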
A general note: ADP-Glo turns the ADP formed in a reaction into a luminescent signal.

Another assay has as its target T2, IKKε (Homo sapiens, UniProt Q14164).
T2 construct: purchased Invitrogen PR8031B
T2 sequence (Q14164 1-716): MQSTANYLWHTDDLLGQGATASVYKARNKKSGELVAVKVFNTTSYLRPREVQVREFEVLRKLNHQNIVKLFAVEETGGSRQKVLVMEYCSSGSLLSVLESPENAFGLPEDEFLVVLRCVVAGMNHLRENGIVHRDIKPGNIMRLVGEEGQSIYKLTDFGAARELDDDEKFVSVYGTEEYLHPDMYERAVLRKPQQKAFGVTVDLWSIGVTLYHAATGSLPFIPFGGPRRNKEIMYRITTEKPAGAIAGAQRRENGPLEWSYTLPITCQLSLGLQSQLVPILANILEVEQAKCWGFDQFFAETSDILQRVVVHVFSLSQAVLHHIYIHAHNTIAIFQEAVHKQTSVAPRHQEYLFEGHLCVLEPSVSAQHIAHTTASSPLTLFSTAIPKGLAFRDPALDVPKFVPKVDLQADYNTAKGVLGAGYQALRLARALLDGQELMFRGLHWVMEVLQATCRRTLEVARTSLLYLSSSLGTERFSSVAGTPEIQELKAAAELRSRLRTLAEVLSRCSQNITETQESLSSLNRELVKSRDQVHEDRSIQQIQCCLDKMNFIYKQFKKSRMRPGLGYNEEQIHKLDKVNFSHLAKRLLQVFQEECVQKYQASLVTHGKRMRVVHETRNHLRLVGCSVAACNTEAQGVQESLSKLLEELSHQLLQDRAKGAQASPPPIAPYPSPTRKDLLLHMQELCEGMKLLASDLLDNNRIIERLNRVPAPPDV
As to the kind of experiment: IKKε inhibition, ADP-Glo Kinase Assay. The assay is classed as biochemical. The conditions noted are these: luminometer. In a few lines: as §1

`CCC(NC(=O)c1ccc2[nH]nc(NC(=O)c3ccc(N4C[C@@H](C)N[C@@H](C)C4)cc3)c2c1)c1cccs1` (stereo partly drawn) [Example 99, 3-(4-((3R,5S)-3,5-Dimethylpiperazin-1-yl)benzamido)-N-(1-(thiophen-2-yl)propyl)-1H-indazole-5-carboxamide 2,2,2-trifluoroacetate]: the IC50 at TBK1 was 0.0027 µM; against IKKε, 0.014 µM.

In the case of `Cc1cc(CNC(=O)c2ccc3[nH]nc(NC(=O)c4ccc(N5CCN(C)CC5)cc4)c3c2)ccn1` [Example 70, 3-(4-(4-Methylpiperazin-1-yl)benzamido)-N-((2-methylpyridin-4-yl)methyl)-1H-indazole-5-carboxamide], the values for the IC50 against TBK1 and against IKKε were 0.18 µM and 1.5 µM, respectively.

As to `O=C(Nc1n[nH]c2ccc(C(=O)NC(c3cccs3)C3CC3)cc12)c1ccc(N2CCOCC2)cc1` (stereo not drawn) [Example 122, N-(Cyclopropyl(thiophen-2-yl)methyl)-3-(4-morpholinobenzamido)-1H-indazole-5-carboxamide], the half-maximal inhibitory concentration (IC50) amounted to 0.0044 µM against TBK1 and 0.025 µM against IKKε.

As for `CN1CCN(c2ccc(C(=O)Nc3n[nH]c4ccc(C(=O)NCc5ccccc5)cc34)cc2)CC1` [Example 40, N-Benzyl-3-(4-(4-methylpiperazin-1-yl)benzamido)-1H-indazole-5-carboxamide], the values for the IC50 on TBK1 and against IKKε were 0.00094 µM and 0.0089 µM, respectively.

As for `CCC(C)(NC(=O)c1ccc2[nH]nc(NC(=O)c3ccc(F)cc3)c2c1)c1cccs1` (stereo not drawn) [Example 34, 3-(4-Fluorobenzamido)-N-(2-(thiophen-2-yl)butan-2-yl)-1H-indazole-5-carboxamide], the 50% inhibitory concentration (IC50) on TBK1 is 0.58 µM; on IKKε it was 1.74 µM.

For the compound `O=C(NCc1cncs1)c1ccc2[nH]nc(NC(=O)c3ccc(F)cc3)c2c1` [Example 27, 3-(4-Fluorobenzamido)-N-(thiazol-5-ylmethyl)-1H-indazole-5-carboxamide 2,2,2-trifluoroacetate], the concentration for half-maximal inhibition (IC50) against TBK1 came out at 0.2 µM; at IKKε, 0.36 µM.

`CC(NC(=O)c1ccc2[nH]nc(NC(=O)c3ccc(N4CCN(C)CC4)cc3)c2c1)c1cccs1` (stereo not drawn) [Example 44, 3-(4-(4-Methylpiperazin-1-yl)benzamido)-N-(1-(thiophen-2-yl)ethyl)-1H-indazole-5-carboxamide]: the figures for the IC50 against TBK1 and against IKKε were 0.0035 µM and 0.0031 µM, respectively.

For the compound `CCC[C@@H](NC(=O)c1ccc2[nH]nc(NC(=O)c3ccc(N4CCN(C)CC4)cc3)c2c1)c1ccccc1` [Example 194, (R)-3-(4-(4-Methylpiperazin-1-yl)benzamido)-N-(1-phenylbutyl)-1H-indazole-5-carboxamide], the IC50 was found to be 0.0075 µM against TBK1 and 0.038 µM on IKKε.

As for `CC(NC(=O)c1ccc2[nH]nc(NC(=O)c3ccc(F)cc3)c2c1)c1ccncc1` (stereo not drawn) [Example 214, 3-(4-Fluorobenzamido)-N-(1-(pyridin-4-yl)ethyl)-1H-indazole-5-carboxamide], the concentration for half-maximal inhibition (IC50) at TBK1 amounted to 0.27 µM; at IKKε it was 0.59 µM.

Regarding `CC1CN(c2ccc(C(=O)Nc3n[nH]c4ccc(C(=O)NCc5cccs5)cc34)cc2)CC(C)O1` (stereo not drawn) [Example 92, 3-(4-(2,6-Dimethylmorpholino)benzamido)-N-(thiophen-2-ylmethyl)-1H-indazole-5-carboxamide 2,2,2-trifluoroacetate], the IC50 on TBK1 came out at 0.007 µM; on IKKε, 0.065 µM.

With `O=C(NCc1cccs1)c1ccc2[nH]nc(NC(=O)c3ccc(NCCN4CCCC4)cc3)c2c1` [Example 152, 3-(4-((2-(Pyrrolidin-1-yl)ethyl)amino)benzamido)-N-(thiophen-2-ylmethyl)-1H-indazole-5-carboxamide], the half-inhibitory concentration (IC50) against TBK1 stood at 0.004 µM; on IKKε it was 0.092 µM.

Turning to `COc1ccc(C(=O)Nc2n[nH]c3ccc(C(=O)NCc4cccs4)cc23)cc1` [Example 3, 3-(4-Methoxybenzamido)-N-(thiophen-2-ylmethyl)-1H-indazole-5-carboxamide], the IC50 amounted to 0.038 µM on TBK1 and 0.11 µM on IKKε.

On to `CCC(NC(=O)c1ccc2[nH]nc(NC(=O)c3ccc(N4CCOCC4)cc3)c2c1)c1ccccc1` (stereo not drawn) [Example 188, 3-(4-Morpholinobenzamido)-N-(1-phenylpropyl)-1H-indazole-5-carboxamide], for which the figures for the half-inhibitory concentration (IC50) on TBK1 and on IKKε were 0.0032 µM and 0.017 µM, respectively.

For `O=C(NCc1c[nH]nn1)c1ccc2[nH]nc(NC(=O)c3ccc(N4CCOCC4)cc3)c2c1` [Example 119], the figures for the IC50 on TBK1 and against IKKε were 0.46 µM and 1.24 µM, respectively.

Take `Cc1ccc(CNC(=O)c2ccc3[nH]nc(NC(=O)c4ccc(N5CCOCC5)cc4)c3c2)s1` [Example 60, N-((5-Methylthiophen-2-yl)methyl)-3-(4-morpholinobenzamido)-1H-indazole-5-carboxamide]: the concentration for half-maximal inhibition (IC50) at TBK1 stood at 0.034 µM; at IKKε it was 0.28 µM.

Turning to `CC(=O)Nc1ccc(C(=O)Nc2n[nH]c3ccc(C(=O)NCc4cccs4)cc23)cc1` [Example 211, 3-(4-Acetamidobenzamido)-N-(thiophen-2-ylmethyl)-1H-indazole-5-carboxamide], the half-maximal inhibitory concentration (IC50) at TBK1 is 0.0013 µM; on IKKε, 0.079 µM.

As to `CN1CCN(c2ccc(C(=O)Nc3n[nH]c4ccc(C(=O)NCC5CCCC5)cc34)cc2)CC1` [Example 90, N-(Cyclopentylmethyl)-3-(4-(4-methylpiperazin-1-yl)benzamido)-1H-indazole-5-carboxamide 2,2,2-trifluoroacetate], the IC50 on TBK1 worked out at 0.013 µM; on IKKε, 0.21 µM.

Consider `O=C(NCc1cccs1)c1ccc2[nH]nc(NC(=O)c3ccc(N4CCOCC4)cc3)c2c1` [Example 148, 3-(4-Morpholinobenzamido)-N-(thiophen-2-ylmethyl)-1H-indazole-5-carboxamide], for which the IC50 was found to be 0.004 µM against TBK1 and 0.031 µM at IKKε.

Consider `O=C(NCc1ccccc1)c1ccc2[nH]nc(NC(=O)c3ccc(N4CCOCC4)cc3)c2c1` [Example 177, N-Benzyl-3-(4-morpholinobenzamido)-1H-indazole-5-carboxamide], for which the IC50 at TBK1 came out at 0.011 µM; against IKKε, 0.033 µM.

For `CC(NC(=O)c1ccc2[nH]nc(NC(=O)c3ccc(N4CCOCC4)cc3)c2c1)c1ccccc1` (stereo not drawn) [Example 180, 3-(4-Morpholinobenzamido)-N-(1-phenylethyl)-1H-indazole-5-carboxamide], the IC50 was determined as 0.0023 µM against TBK1 and 0.12 µM against IKKε.

In the case of `O=C(Nc1n[nH]c2ccc(C(=O)NC(c3cccs3)C(F)(F)F)cc12)c1ccc(N2CCOCC2)cc1` (stereo not drawn) [Example 138, 3-(4-Morpholinobenzamido)-N-(2,2,2-trifluoro-1-(thiophen-2-yl)ethyl)-1H-indazole-5-carboxamide], the IC50 against TBK1 was 0.039 µM; against IKKε, 0.12 µM.

`CN1CCN(c2ccc(C(=O)Nc3n[nH]c4ccc(C(=O)NCc5cccnc5)cc34)cc2)CC1` [Example 57, 3-(4-(4-Methylpiperazin-1-yl)benzamido)-N-(pyridin-3-ylmethyl)-1H-indazole-5-carboxamide bis(2,2,2-trifluoroacetate)]: the concentration for half-maximal inhibition (IC50) came to 0.0012 µM at TBK1 and 0.14 µM at IKKε.

Regarding `CC(NC(=O)c1ccc2[nH]nc(NC(=O)c3ccc(N4CCN(C)CC4)cc3)c2c1)c1cncs1` (stereo not drawn) [Example 83, 3-(4-(4-Methylpiperazin-1-yl)benzamido)-N-(1-(thiazol-5-yl)ethyl)-1H-indazole-5-carboxamide], the results for the IC50 against TBK1 and against IKKε were 0.011 µM and 0.047 µM, respectively.

`O=C(NCc1ccsc1)c1ccc2[nH]nc(NC(=O)c3ccc(N4CCOCC4)cc3)c2c1` [Example 46, 3-(4-Morpholinobenzamido)-N-(thiophen-3-ylmethyl)-1H-indazole-5-carboxamide]: the values for the concentration for half-maximal inhibition (IC50) on TBK1 and against IKKε were 0.0015 µM and 0.022 µM, respectively.
